In one data set the test system is β-galactosidase. The experiment in a line: enzymatic cleavage of substrate to (20) by β-galactosidase. Type of data set: biochemical. The settings on record: in the presence of β-galactosidase. The protocol: (§1) When dissolved in 50 mM phosphate buffer at pH 7.4 containing 5 mM magnesium chloride (MgCl2) compound (23)+(24) (mixture) had λmax of 454 nm (ε =22,000) and 344 nm (ε =14,000).

Data set [1] can be described thus: UV/visible absorption in 50 mM phosphate buffer pH 7.4 containing 5 mM MgCl2. Type of data set: physicochemical. Particulars: 50 mM phosphate buffer pH 7.4, 5 mM MgCl2. The protocol:
as §1

The conditions of data set [2]: protonated vs deprotonated form; cited from earlier work.

What is called Km is the concentration of substrate that gives half-maximal velocity. On to “8-β-D-Galactopyranosyloxy-11-methyl-11H-dibenz[b,e][1,4]oxazepin-1-one(23) and 2-β-D-galactopyranosyloxy-11-methyl-11H-dibenz[b,e][-1,4]oxazepin-8-one (24) [(23)+(24)]”, for which, in the data set on β-galactosidase, the Km came to 75 µM and the “rate (Kcat) of cleavage to (20)” value is reported as 1.32×10^4 mol. min^-1 /mol. active site. Further, in data set [1] (344 nm), the “ε at λmax 344 nm” value was 14,000. In data set [1] (454 nm), the “ε at λmax 454 nm” value is given as 22,000. In data set [1] (long-wavelength maximum), this compound displayed a λmax of 454 nm. In data set [1] (second maximum), this compound gave a λmax of 344 nm.
As to `CC1Oc2cc(O)ccc2N=C2C=CC(=O)C=C21` (stereo not shown) [(20)], the “shift in absorption (λmax) between the protonated form and the deprotonated form” value in data set [2] was 122 nm.

The values above are taken from patent publication US5183743A, “Chromogenic dibenzoxazepinone and dibenzothiazepinone enzyme substrates” (Miles Inc., priority 1991, dated 1993).
